Reference: patent publication US7671085B2, “Non-steroidal farnesoid X receptor modulators and methods for the use thereof” (The Salk Institute for Biological Studies, priority 2002, dated 2010)

Legend:
[1] = tested on: IBABP mRNA in HT29-FXRFL cells; experiment: Northern blot of IBABP mRNA in HT29 stable cell lines; format: cell-based, Human
Description: HepG2 or HT29-derived cell lines were typically cultured in medium containing superstripped FBS for 24 hr before the addition of a ligand or DMSO (vehicle) for an additional 24-48 hr. Total RNA was isolated using TRIzol reagent and was resolved (10 μg/lane) on a 1% agarose, 2.2 M formaldehyde gel, transferred to a nylon membrane (Hybond N^+; Amersham Biosciences, Inc.), and cross-linked to the membrane with UV light.
cDNA probes were radiolabeled with [α-^32P]dCTP using the highprime labeling kit (Amersham Biosciences, Inc.). Membranes were hybridized using the QuikHyb hybridization solution (Stratagene, La Jolla, Calif.) according to the manufacturer's protocol. Blots were normalized for variations of RNA loading by hybridization to a control probe, either, 18 S ribosomal cDNA, or the ribosomal protein 36B4. The RNA levels were quantitated using a PhosphorImager (ImageQuant software; Molecular Dynamics, Inc., Sunnyvale, Calif.) in addition to being exposed to X-ray film.
Human colon cells HT29 (FXR null until differentiated) were infected with retroviral vectors that expressed either FXR constructs and the puromycin-resistant gene or the puromycin-resistant gene alone. Puromycin resistant cells were isolated and pooled cell populations were propagated that harbored either the vector alone (HT29-BABE), overexpressed FXR full length (HT29-FXRFL), a non-functional FXR truncated at the AF2 region (HT29-FXR-AF2), or a constitutively active FXR that has the VP16 activation domain fused N-terminal of the protein (HT29-VP16-FXR). Confirmation of the successful establishment of the different stable cell lines was established via northern blot analysis of FXR message levels in the cells.
These observations verify the usefulness of this colon cell model system for studying the induction of FXR target genes.
The ability of the novel compounds identified herein to induce IBABP gene expression in this cell system was also examined. Total RNA from HT29 stable cells treated overnight with fexaramine, fexarine and fexarene was probed for IBABP gene expression.

FXR = target: T1, FXR (Homo sapiens, UniProt Q96RI1); experiment: cell-based FXR transcription assay, FXR responsive promoter linked to luciferase reporter; conditions: for RE^a: cell-based FXR reporter assay, footnote a not given; for FXR activation, in words: cell-based reporter assay, SAR discussion
T1 construct: using a full length FXR on a natural response element; expressed in transfected cells
T1 sequence (Q96RI1 1-486): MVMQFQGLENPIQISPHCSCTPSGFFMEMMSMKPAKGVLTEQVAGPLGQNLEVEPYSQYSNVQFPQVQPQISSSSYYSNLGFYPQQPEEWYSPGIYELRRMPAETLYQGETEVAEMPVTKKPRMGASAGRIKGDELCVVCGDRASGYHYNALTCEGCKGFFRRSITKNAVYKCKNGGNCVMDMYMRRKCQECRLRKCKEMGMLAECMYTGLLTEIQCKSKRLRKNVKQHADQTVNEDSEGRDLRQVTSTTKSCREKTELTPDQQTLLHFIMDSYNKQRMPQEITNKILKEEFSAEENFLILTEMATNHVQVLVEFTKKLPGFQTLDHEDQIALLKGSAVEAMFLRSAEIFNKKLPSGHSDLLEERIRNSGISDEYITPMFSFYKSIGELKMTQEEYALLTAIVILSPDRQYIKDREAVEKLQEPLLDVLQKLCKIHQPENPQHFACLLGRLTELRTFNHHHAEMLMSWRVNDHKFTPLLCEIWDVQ
Method in brief: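 Cells co-transfected with full-length FXR and a luciferase reporter driven by a natural response element on a minimal promoter. Compound exposure ≈10 μM for 18 h before washing and luciferase read-out, in 384-well format, with CDCA as reference activator. EC50 derived from transcriptional activity.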

SMILES	RE^a (FXR)	FXR activation, in words (FXR)	further results
C[C@H](CCC(=O)O)[C@H]1CC[C@H]2[C@@H]3[C@H](O)C[C@@H]4C[C@H](O)CC[C@]4(C)[C@H]3CC[C@]12C [CDCA, chenodeoxycholic acid, reference compound]	–	–	induction of IBABP mRNA, in words ([1]; HT29-BABE or HT29-FXR-AF2 cell lines): No induction of IBABP mRNA levels; induction of IBABP mRNA, in words ([1]; HT29-FXRFL cells): robust concentration dependent induction of IBABP mRNA; concentration for maximal induction of IBABP mRNA ([1]; HT29-FXRFL cells, overnight treatment): 100 µM; induction of IBABP mRNA, in words ([1]; HT29-VP16-FXR cells (constitutive expression)): super-induced
COC(=O)/C=C/c1cccc(N(Cc2ccc(-c3ccc4c(c3)OCO4)cc2)C(=O)C(C)C)c1 [Compound 245]	1.25	excellent activity	–
COC(=O)/C=C/c1cccc(N(Cc2ccc(-c3ccc4c(c3)OCO4)cc2)C(=O)NC(C)C)c1 [Compound 246]	1.51	excellent activity	–
COC(=O)/C=C/c1cccc(N(Cc2ccc(-c3ccc(F)c(Cl)c3)cc2)C(=O)C2CCCCC2)c1 [Compound 247]	1.87	excellent activity	–
COC(=O)/C=C/c1cccc(N(Cc2ccc(-c3ccc(F)c(Cl)c3)cc2)C(=O)C(C)C)c1 [Compound 248]	1.64	–	–
COC(=O)/C=C/c1cccc(N(Cc2ccc(-c3ccc(F)c(Cl)c3)cc2)C(=O)NC(C)C)c1 [Compound 249]	0.41	–	–
COC(=O)/C=C/c1cccc(N(Cc2ccc(-c3ccc(OC(F)(F)F)cc3)cc2)C(=O)C2CCCCC2)c1 [Compound 250]	1.04	–	–
COC(=O)/C=C/c1cccc(N(Cc2ccc(-c3ccc(OC(F)(F)F)cc3)cc2)C(=O)C(C)C)c1 [Compound 251]	0.78	–	–
COC(=O)/C=C/c1cccc(N(Cc2ccc(-c3ccc(OC(F)(F)F)cc3)cc2)C(=O)NC(C)C)c1 [Compound 252]	0.21	–	–
COC(=O)/C=C/c1cccc(N(Cc2ccc(-c3cccc(OC(F)(F)F)c3)cc2)C(=O)C2CCCCC2)c1 [Compound 253]	0.84	–	–
COC(=O)/C=C/c1cccc(N(Cc2ccc(-c3cccc(OC(F)(F)F)c3)cc2)C(=O)C(C)C)c1 [Compound 254]	0.69	–	–
COC(=O)/C=C/c1cccc(N(Cc2ccc(-c3cccc(OC(F)(F)F)c3)cc2)C(=O)NC(C)C)c1 [Compound 255]	0.09	–	–
COC(=O)/C=C/c1cccc(N(Cc2ccc(-c3c(OC)cccc3OC)cc2)C(=O)C2CCCCC2)c1 [Compound 256]	0.12	excellent activity	–
COC(=O)/C=C/c1cccc(N(Cc2ccc(-c3c(OC)cccc3OC)cc2)C(=O)C(C)C)c1 [Compound 257]	0.10	excellent activity	–
COC(=O)/C=C/c1cccc(N(Cc2ccc(-c3c(OC)cccc3OC)cc2)C(=O)NC(C)C)c1 [Compound 258]	0.10	–	–
COC(=O)/C=C/c1cccc(N(Cc2ccc(-c3ccc(N(C)C)cc3)cc2)C(=O)C(C)C)c1 [Compound 260]	1.07	excellent activity	–
COC(=O)/C=C/c1cccc(N(Cc2ccc(-c3ccc(N(C)C)cc3)cc2)C(=O)NC(C)C)c1 [Compound 261]	1.01	–	–
COC(=O)/C=C/c1cccc(N(Cc2ccc(-c3ccc(C(C)(C)C)cc3)cc2)C(=O)C2CCCCC2)c1 [Compound 262]	1.38	–	–
COC(=O)/C=C/c1cccc(N(Cc2ccc(-c3ccc(C(C)(C)C)cc3)cc2)C(=O)C(C)C)c1 [Compound 263]	0.59	–	–
COC(=O)/C=C/c1cccc(N(Cc2ccc(-c3ccc(C(C)(C)C)cc3)cc2)C(=O)NC(C)C)c1 [Compound 264]	1.02	–	–
